“Also recorded” adds a separate entry of the source.
Columns and labels:
[1] = system: L-1210 cells; assay: Antineoplastic action against implanted L-1210 cells (ip-ip), survival T/C; type: in vivo, CDFl mice
Protocol: In this animal test, the antineoplastic action against the implanted tumor was examined in lower animals, in vivo, in respect of the compounds according to the present invention, by using CDFl mice.
To the peritoneal cavity of each group of mice consisting of six CDFl mice per group, 10^6 /0.1 ml of P-388 cells or 10^5 /0.1 ml of L-1210 cells were implanted. […] While to the control groups of CDFl mice, P-388 and L-1210 cells were implanted in the same manner and they were bred without administration of the compounds.
(§1) In the Table, the symbol T/C % means Treatment/Control %, that is the increase in life when the control is 100. The values are obtained by implanting tumor cells to groups of mice (or rats), administering the compound being tested in various amounts every 24 hours after the implantation of the tumor cells and then calculating the ratio, the median survival time of the group to which the compound has been administered to the survival of the control, multiplied by a factor of 100. This method is used in the screening of U.S. National Cancer Institute.
(§2) In Table 7, the symbol "i.P.-i.P." means that the tumor cells are implanted intraperitoneally and the compounds being tested are also administered intraperitoneally. The symbol "TR" is the therapeutic ratio obtained by dividing the dose which provides a maximum T/C value, by the dose which provides a minimum T/C value.

[2] = system: P-388 cells; assay: Antineoplastic action against implanted P-388 cells (ip-ip), survival T/C; type: in vivo, CDFl mice; details: for T/C: P 388 (ip-ip), × 5; for T/C % (Treatment/Control %): Table 6, P388, intraperitoneal
Protocol: To the peritoneal cavity of each group of mice consisting of six CDFl mice per group, 10^6 /0.1 ml of P-388 cells or 10^5 /0.1 ml of L-1210 cells were implanted. […]
In the Table, the symbol T/C % means Treatment/Control %, that is the increase in life when the control is 100. […] This method is used in the screening of U.S. National Cancer Institute.
as §2

[3] = system: P 388; assay: P 388 (ip-iv), survival T/C; type: in vivo, mice
Protocol: as §1
(§3) In Table 9, "iv" and "sc" means that the administration of the compounds is carried out intravenously and the implantation of the tumor cells is carried out subcutaneously.

[4] = system: Lewis Lung Carcinoma; assay: Lewis Lung Carcinoma (sc-ip), inhibition; type: in vivo
[5] = system: Erlich carcinoma; assay: Erlich carcinoma (sc-ip), inhibition; type: in vivo
[6] = system: C-1498; assay: C-1498 (ip-ip), survival T/C; type: in vivo
Protocol: as §1

[7] = system: Yoshida sarcoma; assay: Yoshida sarcoma (ip-iv), survival T/C; type: in vivo
Protocol: as §1, §3

[8] = system: Yoshida sarcoma; assay: Yoshida sarcoma (ip-ip), survival T/C; type: in vivo
Protocol: as §1

[9] = system: MM2; assay: MM2 (ip-ip), survival T/C; type: in vivo, mice
Protocol: (§4) In the Table, the symbol T/C % means Treatment/Control %, that is the increase in life when the control is 100. The values are obtained by implanting tumor cells to groups of mice (or rats), administering the compound being tested in various amounts every 24 hours after the implantation of the tumor cells and then calculating the ratio, the median survival time of the group to which the compound has been administered to the survival of the control, multiplied by a factor of 100. This method is used in the screening of U.S. National Cancer Institute. […]
as §2
The term in Table 7, last column "3/6 60<", means that 3 mice out of 6 mice continue to live more than 60 days after the implantation of the tumor cells.

[10] = system: MOPC-104E; assay: MOPC-104E (ip-ip), survival T/C; type: in vivo
Protocol: as §1

[11] = system: B-16 melanoma; assay: B16 melanoma (ip-ip), survival T/C; type: in vivo, mice
Protocol: as §4, §2

[12] = system: Colon. 38; assay: Colon. 38 (sc-ip), inhibition; type: in vivo; details: 4 mg/kg × 11, after 17 days
[13] = Toxicity test, lethal dose (Litchfield-Wilcoxon); type: in vivo, male 4-weeks CD-1 (ICR) mice; details: suspension in 0.5% CMC, 7 days observation
Protocol: With respect to the compounds of this invention, the lethal dose was determined as follows.
By using male 4-weeks CD-1 (ICR) mice consisting of 5 to 10 mice per group, the desired amount of each compound of this invention was suspended in 0.5% CMC solution and the resultant suspension was administered to each mouse intraperitoneally or intravenously. Observing the life or death as well as the general symptome during 7 days after the administration of the compounds, the value of LD50 for each compounds was estimated from the lethal population observed on the basis of the Litchfield-Wilcoxon method.

[14] = system: Colon 26; assay: Colon 26 (ip-ip), survival T/C; type: in vivo
Protocol: as §1

[15] = Neuropharmacological multidimentional observation (modified Arwin and Smith method); type: in vivo, 4-weeks CD-1 (IRC) mice; details: intraperitoneal, 1 to 20 mg/kg, observed every 30 minutes for 180 minutes, compared with patterns of known medicines
Protocol: In this test, other pharmacological effects which may be obtained by these compounds were investigated.
Each compound of the invention was intraperitoneally administered to 4-weeks CD-1 (IRC) mice (Nippon Charles Liver K.K.) in the dose of 1 to 20 mg/kg with using mice groups consisting of three mice per group. […] The observation was carried out according to the modified Arwin method and Smith method, i.e., neuropharmacological multidimentional observation method.
Making a comparison between the symptom observed and the pattern of the pharmacological action due to the known medicines, it has been discovered that each compound of the invention has the following pharmacological effect.

In the case of `CCCCCC(=O)Oc1ccc2cc1Oc1ccc(cc1)CC1C(=O)N(C)C(C2)C(=O)NC(C)C(=O)NC(C)C(=O)N(C)C(Cc2ccc(OC)cc2)C(=O)NC(C)C(=O)N1C` (stereo not drawn) [Ex. 21, caproate of TPC-A], the “L1210 (i.P. - i.P.) T/C (%)” value ([1]; Table 7, dose 0.5 mg/kg) is reported as 115.6%, the “L1210 (i.P. - i.P.) T/C (%)” value ([1]; Table 7, dose 2 mg/kg) is reported as 126.6% and the “L1210 (i.P. - i.P.) T/C (%)” value ([1]; Table 7, dose 10 mg/kg) is reported as 67.3%. For the same compound, the T/C ([2]; in combination: Mitomycin 0.5 mg/kg + Ex 21 0.5 mg/kg) was 246.8%, the T/C ([2]; in combination: Mitomycin 0.5 mg/kg + Ex 21 5 mg/kg) was 270.3% and the “T/C % (Treatment/Control %)” value ([2]; dose 0.05 mg/kg) was 133.6%. The “T/C % (Treatment/Control %)” value ([2]; dose 0.5 mg/kg) was 143.2%, the “T/C % (Treatment/Control %)” value ([2]; dose 2 mg/kg) was 151.6% and the “T/C % (Treatment/Control %)” value ([2]; dose 10 mg/kg) was 197.2%. For the same compound, the “P388 (i.P. - i.P.) T/C (%)” value ([2]; Table 7, dose 0.01 mg/kg) was 133.7%, the “P388 (i.P. - i.P.) T/C (%)” value ([2]; Table 7, dose 0.1 mg/kg) was 135.9% and the “P388 (i.P. - i.P.) T/C (%)” value ([2]; Table 7, dose 2 mg/kg) was 152.2%. The T/C ([3]; 5.56 mg/kg × 9) was 117.2%, the T/C ([3]; 6.94 mg/kg × 9) was 120.4% and the Inhibition ([4]; 0.5 mg/kg × 25, after 17 days) was 24.3%. The Inhibition ([5]; 8 mg/kg × 11, after 14 days) was 58.5%, the T/C ([6]; 2 mg/kg × 5 days) was 110.2% and the T/C ([6]; 8 mg/kg × 5 days) was 122.2%. For the same compound, the T/C ([7]; 0.83 mg/kg × 9) was 116.7%, the T/C ([7]; 1.11 mg/kg × 9) was 124.8% and the T/C ([8]; 0.1 mg/kg × 5) was 167.0%. The T/C ([8]; 0.5 mg/kg × 5) was 200.0%, the T/C ([8]; 1 mg/kg × 5) was 213.3% and the “animals living more than 30 days (30<)” value ([8]; 1 mg/kg × 5) was 2/6. The T/C ([8]; 2.5 mg/kg × 5) was 167.0%, the “effectiveness against MM2” value ([9]; (see Table 7)) was “effective” and the “mice continuing to live more than 60 days after implantation (60<)” value ([9]; Table 7, MM2 (i.P. - i.P.), dose 2 mg/kg) was 2/6. For the same compound, the “MM2 (i.P. - i.P.) T/C (%)” value ([9]; Table 7, dose 0.5 mg/kg) was 112.1%, the “MM2 (i.P. - i.P.) T/C (%)” value ([9]; Table 7, dose 2 mg/kg) was 127.3% and the “MM2 (i.P. - i.P.) T/C (%)” value ([9]; Table 7, dose 10 mg/kg) was 93.9%. The T/C ([10]; 2 mg/kg × 9 times) was 120.5%, the T/C ([10]; 5 mg/kg × 9 times) was 136.8% and the “effectiveness against B-16 melanoma” value ([11]; (see Table 7)) was “effective”. For the same compound, the “B16 (i.P. - i.P.) T/C (%)” value ([11]; Table 7, dose 0.5 mg/kg) was 143.5%, the “B16 (i.P. - i.P.) T/C (%)” value ([11]; Table 7, dose 2 mg/kg) was 152.0% and the “B16 (i.P. - i.P.) T/C (%)” value ([11]; Table 7, dose 5 mg/kg) was 165.5%.

For `COc1ccc(C[C@H]2C(=O)N[C@@H](C)C(=O)N(C)[C@H]3Cc4ccc(cc4)Oc4cc(ccc4OC)C[C@@H](C(=O)N[C@H](C)C(=O)N[C@@H](C)C(=O)N2C)N(C)C3=O)cc1` [Methylether of TPC-A], the “L1210 (i.P. - i.P.) T/C (%)” value ([1]; Table 7, dose 0.01 mg/kg) was 105.6%, the “L1210 (i.P. - i.P.) T/C (%)” value ([1]; Table 7, dose 0.5 mg/kg) was 118.6% and the “L1210 (i.P. - i.P.) T/C (%)” value ([1]; Table 7, dose 1 mg/kg) was 120.7%. The “L1210 (i.P. - i.P.) T/C (%)” value ([1]; Table 7, dose 2 mg/kg) was 129.3%, the “L1210 (i.P. - i.P.) T/C (%)” value ([1]; Table 7, dose 5 mg/kg) was 137.3% and the Inhibition [12] was 70.1%. For the same compound, the “LD50 and 95% Confidence Limit” value ([13]; intraperitoneal) was 10.0(7.0-14.3) mg/kg, the “LD50 and 95% Confidence Limit” value ([13]; intravenous) was 16.5(12.6-21.5) mg/kg and the “T/C % (Treatment/Control %)” value ([2]; dose 0.01 mg/kg (printed in the 0.05 column with note "dose, 0.01")) was 130.1%. The “T/C % (Treatment/Control %)” value ([2]; dose 0.5 mg/kg) was 156.7%, the “T/C % (Treatment/Control %)” value ([2]; dose 2 mg/kg) was 164.2% and the “T/C % (Treatment/Control %)” value ([2]; dose 4 mg/kg) was 173.6%. For the same compound, the “P388 (i.P. - i.P.) T/C (%)” value ([2]; Table 7, dose 0.01 mg/kg) was 130.1%, the “P388 (i.P. - i.P.) T/C (%)” value ([2]; Table 7, dose 0.5 mg/kg) was 156.7% and the “P388 (i.P. - i.P.) T/C (%)” value ([2]; Table 7, dose 1 mg/kg) was 159.9%. The “P388 (i.P. - i.P.) T/C (%)” value ([2]; Table 7, dose 2 mg/kg) was 164.2%, the “P388 (i.P. - i.P.) T/C (%)” value ([2]; Table 7, dose 4 mg/kg) was 173.6% and the T/C ([14]; 1 mg/kg × 9) was 113.6%. For the same compound, the T/C ([14]; 2 mg/kg × 9) was 125.0%, the T/C ([14]; 4 mg/kg × 9) was 125.9% and the T/C ([3]; 0.56 mg/kg × 9) was 115.7%. It also gave a T/C ([3]; 2.22 mg/kg × 9) of 160.8%, an Inhibition ([4]; 4 mg/kg × 11, after 17 days) of 51.1% and an Inhibition ([5]; 2 mg/kg × 11, after 14 days) of 60.5%. For the same compound, the “MM2 (i.P. - i.P.) T/C (%)” value ([9]; Table 7, dose 0.2 mg/kg) was 103.1%, the “MM2 (i.P. - i.P.) T/C (%)” value ([9]; Table 7, dose 1 mg/kg) was 103.1% and the “MM2 (i.P. - i.P.) T/C (%)” value ([9]; Table 7, dose 2 mg/kg) was 118.4%. The “MM2 (i.P. - i.P.) T/C (%)” value ([9]; Table 7, dose 5 mg/kg) was 90.8%, the Pharmacological effect estinated [15] was “emetic action; also recorded: anorexigenic action” and the “B16 (i.P. - i.P.) T/C (%)” value ([11]; Table 7, dose 0.25 mg/kg) was 133.8%. The “B16 (i.P. - i.P.) T/C (%)” value ([11]; Table 7, dose 1 mg/kg) was 135.3%, the “B16 (i.P. - i.P.) T/C (%)” value ([11]; Table 7, dose 2 mg/kg) was 139.1% and the “B16 (i.P. - i.P.) T/C (%)” value ([11]; Table 7, dose 4 mg/kg) was 143.0%.

— patent publication US4725578A, “Compounds having therapeutic effect and the preparation thereof” (Tobishi Pharmaceutical Co., Ltd., priority 1986, dated 1988)
